The values that follow come from US20240228488A1 (TAKEDA PHARMACEUTICAL COMPANY LIMITED, priority 2021, published 2024).

pEC50: −log10 of the molar value.

The target of this assay is human activated kallikrein enzyme (Homo sapiens, UniProt P03952). Put plainly: Plasma kallikrein inhibition, fluorogenic PFR-AMC substrate, 500 pM activated kallikrein format. It is filed as biochemical. As to conditions: 500 pM activated kallikrein, 300 uM PFR-AMC, 30 min preincubation, 10 min reaction; read-out: Primary Dose Response Assay: Average EC50. A digest of the protocol: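 Enzyme at 500 pM preincubated 30 min RT with inhibitors in 20 mM Tris pH 7.5, 1 mM EDTA, 150 mM NaCl, 0.1% PEG-400, 0.1% Triton X-100. Reaction started with 300 uM PFR-AMC, run 10 min RT; fluorescence read at 460 nm emission, 380 nm excitation. EC50 reported in ranges.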
human activated kallikrein enzyme, sequence (P03952 391-638 limits assumed): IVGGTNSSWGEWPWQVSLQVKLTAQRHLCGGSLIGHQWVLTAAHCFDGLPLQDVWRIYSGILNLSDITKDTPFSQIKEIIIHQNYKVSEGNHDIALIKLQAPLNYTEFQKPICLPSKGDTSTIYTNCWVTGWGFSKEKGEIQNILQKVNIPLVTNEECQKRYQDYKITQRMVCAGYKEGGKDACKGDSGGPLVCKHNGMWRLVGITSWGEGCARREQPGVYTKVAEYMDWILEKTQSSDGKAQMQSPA
human activated kallikrein enzyme, sequence (P03952 20-390 partner limits assumed): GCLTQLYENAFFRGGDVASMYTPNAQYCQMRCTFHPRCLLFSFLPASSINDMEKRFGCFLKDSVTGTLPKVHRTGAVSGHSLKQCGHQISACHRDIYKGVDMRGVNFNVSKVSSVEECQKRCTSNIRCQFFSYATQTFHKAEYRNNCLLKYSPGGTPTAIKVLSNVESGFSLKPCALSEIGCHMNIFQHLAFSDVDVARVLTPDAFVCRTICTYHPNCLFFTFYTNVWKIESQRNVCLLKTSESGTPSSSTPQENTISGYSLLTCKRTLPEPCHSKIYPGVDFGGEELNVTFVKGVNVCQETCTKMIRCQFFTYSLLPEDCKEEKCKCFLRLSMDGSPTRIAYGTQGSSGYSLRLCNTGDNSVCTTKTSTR
For the molecule `COCc1cnc(NC(=O)[C@H]2C[C@@H]2c2nccc(C)n2)nc1OCc1cn2cc(C3CC3)cc(N3CC(=O)N(C)C3=O)c2n1` [Example 663, (1S,2S)—N-(4-((6-cyclopropyl-8-(3-methyl-2,4-dioxoimidazolidin-1-yl)imidazo[1,2-a]pyridin-2-yl)methoxy)-5-(methoxymethyl)pyrimidin-2-yl)-2-(4-methylpyrimidin-2-yl)cyclopropane-1-carboxamide], the pEC50 was over 9.00.
The value for `Cc1ccnc([C@H]2C[C@@H]2C(=O)Nc2ncc(CO)c(OCc3cn4cc(C5CC5)cc(N5CC(=O)N(C)C5=O)c4n3)n2)n1` [Example 664, (1S,2S)—N-(4-((6-cyclopropyl-8-(3-methyl-2,4-dioxoimidazolidin-1-yl)imidazo[1,2-a]pyridin-2-yl)methoxy)-5-(hydroxymethyl)pyrimidin-2-yl)-2-(4-methylpyrimidin-2-yl)cyclopropane-1-carboxamide] was over 9.00.
The value for `Cc1ccnc([C@H]2C[C@@H]2C(=O)Nc2nncc(N[C@H](C)c3cn4cc(C5CC5)cc(N5CC(=O)N(C)C5=O)c4n3)n2)n1` [Example 665, (1S,2S)—N-(5-(((R)-1-(6-cyclopropyl-8-(3-methyl-2,4-dioxoimidazolidin-1-yl)imidazo[1,2-a]pyridin-2-yl)ethyl)amino)-1,2,4-triazin-3-yl)-2-(4-methylpyrimidin-2-yl)cyclopropane-1-carboxamide] was over 9.00; that for `Cc1ccnc(C2CC2C(=O)Nc2cc(OCc3cn4cc(C5CC5)cc(N5CC(=O)N(C)C5=O)c4n3)c(C(F)(F)F)nn2)n1` (stereo not drawn) [Example 666, N-(5-((6-cyclopropyl-8-(3-methyl-2,4-dioxoimidazolidin-1-yl)imidazo[1,2-a]pyridin-2-yl)methoxy)-6-(trifluoromethyl)pyridazin-3-yl)-2-(4-methylpyrimidin-2-yl)cyclopropane-1-carboxamide] was over 9.00.
The value for `Cc1ccnc([C@H]2C[C@@H]2C(=O)Nc2cc(CCc3cn4cc(C5CC5)cc(N5CC(=O)N(C)C5=O)c4n3)cnn2)n1` [Example 667, (1S,2S)—N-(5-(2-(6-cyclopropyl-8-(3-methyl-2,4-dioxoimidazolidin-1-yl)imidazo[1,2-a]pyridin-2-yl)ethyl)pyridazin-3-yl)-2-(4-methylpyrimidin-2-yl)cyclopropane-1-carboxamide] was over 9.00.
Consider `Cc1ccnc([C@H]2C[C@@H]2C(=O)Nc2nncc(N(C)Cc3cn4cc(C5CC5)cc(N5CC(=O)N(C)C5=O)c4n3)n2)n1` [Example 668, (1S,2S)—N-(5-(((6-cyclopropyl-8-(3-methyl-2,4-dioxoimidazolidin-1-yl)imidazo[1,2-a]pyridin-2-yl)methyl)(methyl)amino)-1,2,4-triazin-3-yl)-2-(4-methylpyrimidin-2-yl)cyclopropane-1-carboxamide], for which the pEC50 is over 9.00.
For `Cc1ccnc([C@H]2C[C@@H]2C(=O)Nc2ccc(C#N)c(OCc3cn4cc(C5CC5)cc(N5CC(=O)N(C)C5=O)c4n3)c2)n1` [Example 669, (1S,2S)—N-(4-cyano-3-((6-cyclopropyl-8-(3-methyl-2,4-dioxoimidazolidin-1-yl)imidazo[1,2-a]pyridin-2-yl)methoxy)phenyl)-2-(4-methylpyrimidin-2-yl)cyclopropane-1-carboxamide] the value was over 9.00; for `CNc1nnc(NC(=O)[C@H]2C[C@@H]2c2nccc(C)n2)cc1OCc1cn2cc(C3CC3)cc(N3CC(=O)N(C)C3=O)c2n1` [Example 670, (1S,2S)—N-(5-((6-cyclopropyl-8-(3-methyl-2,4-dioxoimidazolidin-1-yl)imidazo[1,2-a]pyridin-2-yl)methoxy)-6-(methylamino)pyridazin-3-yl)-2-(4-methylpyrimidin-2-yl)cyclopropane-1-carboxamide], over 9.00.
For `Cc1ccnc([C@H]2C[C@@H]2C(=O)Nc2nncc(OCc3cn4cc(C5CC5)cc(N5CC(=O)N(C)C5=O)c4n3)n2)n1` [Example 671, (1S,2S)—N-(5-((6-cyclopropyl-8-(3-methyl-2,4-dioxoimidazolidin-1-yl)imidazo[1,2-a]pyridin-2-yl)methoxy)-1,2,4-triazin-3-yl)-2-(4-methylpyrimidin-2-yl)cyclopropane-1-carboxamide] the value was over 9.00; for `Cc1ccnc([C@H]2C[C@@H]2C(=O)Nc2nncc(OC(C)c3cn4cc(C5CC5)cc(N5CC(=O)N(C)C5=O)c4n3)n2)n1` (stereo partly drawn) [Example 672, (1S,2S)—N-(5-(1-(6-cyclopropyl-8-(3-methyl-2,4-dioxoimidazolidin-1-yl)imidazo[1,2-a]pyridin-2-yl)ethoxy)-1,2,4-triazin-3-yl)-2-(4-methylpyrimidin-2-yl)cyclopropane-1-carboxamide], over 9.00.
The value for `CC(=O)OC(Cc1cn2cc(C3CC3)cc(N3CC(=O)N(C)C3=O)c2n1)c1cc(NC(=O)[C@H]2C[C@@H]2c2nccc(C)n2)nc(C)n1` (stereo partly drawn) [Example 673, 2-(6-cyclopropyl-8-(3-methyl-2,4-dioxoimidazolidin-1-yl)imidazo[1,2-a]pyridin-2-yl)-1-(2-methyl-6-((1S,2S)-2-(4-methylpyrimidin-2-yl)cyclopropane-1-carboxamido)pyrimidin-4-yl)ethyl acetate] was 6.00 to 7.00.
In the case of `Cc1ccnc([C@H]2C[C@@H]2C(=O)Nc2cc(C(O)Cc3cn4cc(C5CC5)cc(N5CC(=O)N(C)C5=O)c4n3)nc(C)n2)n1` (stereo partly drawn) [Example 674, (1S,2S)—N-(6-(2-(6-cyclopropyl-8-(3-methyl-2,4-dioxoimidazolidin-1-yl)imidazo[1,2-a]pyridin-2-yl)-1-hydroxyethyl)-2-methylpyrimidin-4-yl)-2-(4-methylpyrimidin-2-yl)cyclopropane-1-carboxamide], the pEC50 was 7.00 to 8.00.
For `Cc1ccnc([C@H]2C[C@@H]2C(=O)Nc2cc(F)cc(OCc3cn4cc(C5CC5)cc(N5CC(=O)N(C)C5=O)c4n3)n2)n1` [Example 675, (1S,2S)—N-(6-((6-cyclopropyl-8-(3-methyl-2,4-dioxoimidazolidin-1-yl)imidazo[1,2-a]pyridin-2-yl)methoxy)-4-fluoropyridin-2-yl)-2-(4-methylpyrimidin-2-yl)cyclopropane-1-carboxamide] the value was over 9.00; for `Cc1ccnc([C@H]2C[C@@H]2C(=O)Nc2cc(OCc3cn4cc(C5(F)CC5)cc(N5CC(=O)N(C)C5=O)c4n3)cnn2)n1` [Example 676, (1S,2S)—N-(5-((6-(1-fluorocyclopropyl)-8-(3-methyl-2,4-dioxoimidazolidin-1-yl)imidazo[1,2-a]pyridin-2-yl)methoxy)pyridazin-3-yl)-2-(4-methylpyrimidin-2-yl)cyclopropane-1-carboxamide], over 9.00.
The value for `Cc1ccnc([C@H]2C[C@@H]2C(=O)Nc2cc(OCc3cn4cc(C5CC5)cc(N5CC(=O)N(C)C5=O)c4n3)c(CO)nn2)n1` [Example 677, (1S,2S)—N-(5-((6-cyclopropyl-8-(3-methyl-2,4-dioxoimidazolidin-1-yl)imidazo[1,2-a]pyridin-2-yl)methoxy)-6-(hydroxymethyl)pyridazin-3-yl)-2-(4-methylpyrimidin-2-yl)cyclopropane-1-carboxamide] was over 9.00; that for `CC(=O)N1CCN(c2cc(C3CC3)cn3cc(CNc4cc(NC(=O)[C@H]5C[C@@H]5c5cccc(Cl)c5)ncn4)nc23)CC1` [Example I-1, (1S,2S)—N-(6-(((8-(4-acetylpiperazin-1-yl)-6-cyclopropylimidazo[1,2-a]pyridin-2-yl)methyl)amino)pyrimidin-4-yl)-2-(3-chlorophenyl)cyclopropane-1-carboxamide] was 8.00 to 9.00.
The value for `COC(=O)C1CN(c2cc(C3CC3)cn3cc(CNc4cc(NC(=O)[C@H]5C[C@@H]5c5cccc(Cl)c5)ncn4)nc23)CCN1C` (stereo partly drawn) [Example I-8, methyl 4-(2-(((6-((15,2S)-2-(3-chlorophenyl)cyclopropane-1-carboxamido)pyrimidin-4-yl)amino)methyl)-6-cyclopropylimidazo[1,2-α]pyridin-8-yl)-1-methylpiperazine-2-carboxylate] was 8.00 to 9.00; that for `O=C(Nc1cc(NCc2cn3cc(C4CC4)cc(N4CC5(C4)CN(C4CC4)C5)c3n2)ncn1)[C@H]1C[C@@H]1c1cccc(Cl)c1` [Example I-12, (1S,2S)-2-(3-chlorophenyl)-N-(6-(((6-cyclopropyl-8-(6-cyclopropyl-2,6-diazaspiro[3.3]heptan-2-yl)imidazo[1,2-a]pyridin-2-yl)methyl)amino)pyrimidin-4-yl)cyclopropane-1-scarboxamide] was 8.00 to 9.00.
For `COc1ccc(CN2C(=O)CN(c3cc(C4CC4)cn4cc(CNc5ccnc(NC(=O)[C@H]6C[C@@H]6c6cccc(Cl)c6)c5)nc34)C2=O)cc1` [Example I-22, (1S,2S)-2-(3-chlorophenyl)-N-(4-(((6-cyclopropyl-8-(3-(4-methoxybenzyl)-2,4-dioxoimidazolidin-1-yl)imidazo[1,2-a]pyridin-2-yl)methyl)amino)pyridin-2-yl)cyclopropane-1-carboxamide], the negative-log EC50 (pEC50) was 7.00 to 8.00.
For `O=C(Nc1cc(NCc2cn3cc(C4CC4)cc(N4CC(F)C4)c3n2)ncn1)[C@H]1C[C@@H]1c1cccc(Cl)c1` [Example I-145, (1S,2S)-2-(3-chlorophenyl)-N-(6-(((6-cyclopropyl-8-(3-fluoroazetidin-1-yl)imidazo[1,2-a]pyridin-2-yl)methyl)amino)pyrimidin-4-yl)cyclopropane-1-carboxamide] the value was 7.00 to 8.00; for `COC(=O)c1cc(C2CC2)cn2cc(CNc3cc(NC(=O)[C@H]4C[C@@H]4c4cccc(Cl)c4)ncn3)nc12` [Example I-146, methyl 2-(((6-((1S,2S)-2-(3-chlorophenyl)cyclopropane-1-carboxamido)pyrimidin-4-yl)amino)methyl)-6-cyclopropylimidazo[1,2-a]pyridine-8-carboxylate], 8.00 to 9.00.

As a reminder, the pEC50 is the EC50 on a negative log10 scale, so that one unit is a factor of ten.
